Where a name gives a salt, the structure may show the parent alone.
Experiments:
[1] = biological target: MELK (Homo sapiens, UniProt Q14680); test: Kinase assay (IMAP fluorescence polarization, FITC-labeled histone H3 peptide); assay type: biochemical; conditions: 50 micro-M ATP
Procedure: MELK activity was determined in the presence or absence of compounds using fluorescein isothiocyanate-labeled (FITC-labeled) histone H3 peptide as a substrate. […] The serially diluted compounds, 0.8 ng/micro-L […] (Carna Biosciences) and 100 nM FITC-labeled histone H3 peptide were reacted in a reaction buffer (20 mM HEPES, 0.01% Tween-20, 0.3 mM MgCl2, 2 mM dithiothreitol, 50 micro-M ATP, pH 7.4) at room temperature for 1 hour. The reaction was stopped by the addition of three fold assay volume of progressive binding solution. […] IC50 values were calculated by nonlinear four parameter fit using SigmaPlot, version 10.0 (Systat Software, Inc.).

[2] = tested on: 22Rv1 cells; test: Cell-based assay, anti-proliferative activity (Cell Counting Kit-8, 72 hours); set-up: species or system human; conditions: Homo sapiens, 22Rv1, 72 h, read-out: IC50 (μM) (22Rvl)
Procedure: (§1) Active candidate inhibitors against MELK were evaluated for their target-specific cytotoxicity using 22Rv1, T47D, A549, DU4475 and HT-1197 cells was used for negative control. 100 micro-L of cell suspension was seeded onto 96-well microtiter plate (ViewPlate-96FTC, PerkinElmer). The initial cell concentration of 22Rv1, T47D, A549, DU4475, and HT1197 were 3,000 cells/well, 2,000 cells/well and 2,500 cells/well, respectively. Cellular growth was determined using Cell Counting Kit-8 (DOJINDO) at 72 hours after the exposure of the candidate inhibitors. […] Accurate IC50 values were calculated as described previously.

[3] = tested on: A549 cells; test: as above; set-up: species or system human; conditions: Homo sapiens, A549, 72 h, read-out: IC50 (μM) (A549)
Procedure: as §1

[4] = tested on: DU4475 cells; test: as above; set-up: species or system human; conditions: Homo sapiens, DU-4475, 72 h, read-out: IC50 (μM) (DU4475)
Procedure: as §1

[5] = tested on: T47D cells; test: as above; set-up: species or system human; conditions: Homo sapiens, T47D, 72 h, read-out: IC50 (μM) (T47D)
Procedure: as §1

[6] = tested on: HT1197 cells; test: Cell-based assay, anti-proliferative activity, MELK-negative control (Cell Counting Kit-8, 72 hours); set-up: species or system human; conditions: Homo sapiens, HT1197, 72 h, read-out: IC50 (μM) (HTll97)
Procedure: as §1, with “100” for “Active candidate inhibitors against MELK were evaluated for their target-specific cytotoxicity using 22Rv1, T47D, A549, DU4475 and HT-1197 cells was used for negative control. 100”

Chain of MELK (Q14680 whole entry, looked up): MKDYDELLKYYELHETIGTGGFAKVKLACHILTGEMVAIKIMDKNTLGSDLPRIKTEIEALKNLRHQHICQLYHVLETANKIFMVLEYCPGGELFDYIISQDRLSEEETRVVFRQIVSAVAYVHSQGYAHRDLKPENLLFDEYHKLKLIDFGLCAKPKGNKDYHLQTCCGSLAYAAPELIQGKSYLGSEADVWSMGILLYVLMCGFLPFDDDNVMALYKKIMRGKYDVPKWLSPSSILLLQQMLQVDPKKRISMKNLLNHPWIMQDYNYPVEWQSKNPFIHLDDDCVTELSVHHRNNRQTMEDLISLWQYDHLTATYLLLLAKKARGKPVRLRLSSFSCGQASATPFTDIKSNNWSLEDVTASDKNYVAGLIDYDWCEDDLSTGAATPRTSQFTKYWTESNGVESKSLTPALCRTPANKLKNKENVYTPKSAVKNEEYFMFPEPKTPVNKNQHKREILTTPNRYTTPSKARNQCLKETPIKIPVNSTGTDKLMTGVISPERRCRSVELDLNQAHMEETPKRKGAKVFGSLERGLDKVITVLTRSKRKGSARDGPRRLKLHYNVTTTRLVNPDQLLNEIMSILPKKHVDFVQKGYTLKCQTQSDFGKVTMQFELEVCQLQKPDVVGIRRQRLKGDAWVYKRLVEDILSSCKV

Row | Structure (SMILES) | IC50 [1] [µM] | IC50 [2] [µM] | IC50 [3] [µM] | IC50 [4] [µM] | IC50 [5] [µM] | IC50 [6] [µM]
1 | CC(=O)c1cnc2ccc(-c3cc(Cl)c(O)c(Cl)c3)nc2c1Nc1ccc(CCN(C)C)cc1 [Example 29, 1-[6-(3,5-Dichloro-4-hydroxyphenyl)-4-{4-[2-(dimethylamino)ethyl]phenylamino}-1,5-naphthyridin-3-yl)ethanone dihydrochloride] | 0.0026 | 0.084 | 0.11 | 0.028 | 0.085 | 0.68
2 | CC(=O)c1cnc2ccc(-c3cc(F)c(O)c(Cl)c3)nc2c1Nc1ccc(CCN(C)C)cc1 [Example 30, 1-[6-(3-Chloro-5-fluoro-4-hydroxyphenyl)-4-{4-[2-(dimethylamino)ethyl]phenylamino}-1,5-naphthyridin-3-yl)ethanone dihydrochloride] | 0.0059 | 0.17 | 0.14 | 0.041 | 0.11 | 1.2
3 | COc1cc(-c2ccc3ncc(C(C)=O)c(Nc4ccc(CCN(C)C)cc4)c3n2)cc(Cl)c1O [Example 31, 1-(6-(3-Chloro-4-hydroxy-5-methoxyphenyl)-4-(4-(2-(dimethyl-amino)ethyl)phenylamino)-1,5-naphthyridin-3-yl) ethanone dihydrochloride] | 0.0037 | 0.65 | 0.31 | 0.19 | 0.41 | 4.4
4 | CN(C)[C@H]1CC[C@H](Nc2c(S(C)(=O)=O)cnc3ccc(-c4cc(F)c(O)c(Cl)c4)nc23)CC1 [Example 32, 2-Chloro-4-(8-(trans-4-(dimethylamino)-cyclohexylamino)-7-(methylsulfonyl)-1,5-naphthyridin-2-yl)-6-fluorophenol dihydrochloride] | 0.0016 | 0.046 | 0.2 | 0.0063 | 0.024 | 3.1
5 | CC(=O)c1cnc2ccc(-c3cc(Cl)c(O)c(Cl)c3)nc2c1Nc1cnn(C2CCN(C)CC2)c1 [Example 33, 1-[6-(3,5-Dichloro-4-hydroxyphenyl)-4-[1-(1-methylpiperidin-4-yl)-1H-pyrazol-4-ylamino]-1,5-naphthyridin-3-yl]ethanone dihydrochloride] | 0.0078 | 0.64 | 0.93 | 0.34 | 0.35 | 100
6 | CC(=O)c1cnc2ccc(-c3cc(Cl)c(O)c(Cl)c3)nc2c1Nc1ccc(CN2CCN(C)CC2)cc1 [Example 34, 1-(6-(3,5-Dichloro-4-hydroxyphenyl)-4-(4-((4-methylpiperazin-1-yl)methyl)-phenylamino)-1,5-naphthyridin-3-yl)ethanone trihydrochloride] | 0.0061 | 0.21 | 0.19 | 0.096 | 0.11 | 1.6
7 | CC(=O)c1cnc2ccc(-c3cc(F)c(O)c(Cl)c3)nc2c1Nc1ccc(CN2CCN(C)CC2)cc1 [Example 35, 1-[6-(3-Chloro-5-fluoro-4-hydroxyphenyl)-4-{4-[(4-methylpiperazin-1-yl)methyl]phenylamino}-1,5-naphthyridin-3-yl]ethanone trihydrochloride] | 0.037 | 0.65 | 0.41 | 0.31 | 0.22 | 3.8
8 | CC(=O)c1cnc2ccc(-c3cc(Cl)c(O)c(Cl)c3)nc2c1N1CCC(CCN2CCCC2)CC1 [Example 36, 1-[6-(3,5-Dichloro-4-hydroxyphenyl)-4-{4-[2-(pyrrolidin-1-yl)ethyl]piperidin-1-yl}-1,5-naphthyridin-3-yl]ethanone dihydrochloride] | 0.0021 | 0.36 | 0.63 | 0.22 | 0.21 | 4.7
9 | CC(=O)c1cnc2ccc(-c3cc(F)c(O)c(Cl)c3)nc2c1N1CCC(CCN2CCCC2)CC1 [Example 37, 1-[6-(3-Chloro-5-fluoro-4-hydroxyphenyl)-4-{4-[2-(pyrrolidin-1-yl)ethyl]piperidin-1-yl}-1,5-naphthyridin-3-yl]ethanone dihydrochloride] | 0.01 | 0.49 | 1.2 | 0.42 | 0.25 | 7.2
10 | CC(=O)c1cnc2ccc(-c3cc(Cl)c(O)c(Cl)c3)nc2c1Nc1ccc(NCCN(C)C)nc1 [Example 38, 1-[6-(3,5-Dichloro-4-hydroxyphenyl)-4-{6-[2-(dimethylamino)ethylamino]pyridin-3-ylamino}-1,5-naphthyridin-3-yl]ethanone trihydrochloride] | 0.011 | 0.24 | 0.26 | 0.069 | 0.11 | 9.5
11 | CC(=O)c1cnc2ccc(-c3cc(F)c(O)c(Cl)c3)nc2c1Nc1ccc(NCCN(C)C)nc1 [Example 39, 1-[6-(3-Chloro-5-fluoro-4-hydroxyphenyl)-4-{6-[2-(dimethylamino)ethylamino]pyridin-3-ylamino}-1,5-naphthyridin-3-yl]ethanone trihydrochloride] | 0.03 | 0.38 | 0.44 | 0.19 | 0.12 | 10
12 | N[C@H]1CCCN(c2ccc(Nc3c(C(=O)C4CC4)cnc4ccc(-c5cc(Cl)c(O)c(Cl)c5)nc34)cn2)C1 [Example 40, (S)-{4-[6-(3-Aminopiperidin-1-yl)pyridin-3-ylamino]-6-(3,5-dichloro-4-hydroxyphenyl)-1,5-naphthyridin-3-yl}(cyclopropyl)methanone trihydrochloride] | 0.0012 | 0.034 | 0.29 | 0.02 | 0.025 | 4.2
13 | CC(=O)c1cnc2ccc(-c3cc(Cl)c(O)c(Cl)c3)nc2c1Nc1cnc(N2CCC(N)C2)nc1 (stereo not drawn) [Example 41, 1-{4-[2-(3-Aminopyrrolidin-1-yl)pyrimidin-5-ylamino]-6-(3,5-dichloro-4-hydroxyphenyl)-1,5-naphthyridin-3-yl}ethanone trihydrochloride] | 0.0017 | 0.052 | 0.27 | 0.026 | 0.027 | 100
14 | CC(=O)c1cnc2ccc(-c3cn[nH]c3)nc2c1N[C@H]1CC[C@H](CN(C)C)CC1 [Example 42, 1-(4-{trans-4-[(Dimethylamino)methyl]cyclohexylamino}-6-(1H-pyrazol-4-yl)-1,5-naphthyridin-3-yl)ethanone trihydrochloride] | 0.017 | 0.063 | 0.049 | 0.045 | 0.036 | 0.06
15 | CC(=O)c1cnc2ccc(-c3cc(Cl)c(O)c(Cl)c3)nc2c1N[C@H]1CC[C@H](CO)CC1 [Example 43, 1-(6-{3,5-Dichloro-4-hydroxyphenyl)-4-[trans-4-(hydroxymethyl)cyclohexyl]amino}-1,5-naphthyridin-3-yl)ethanone hydrochloride] | 0.0031 | 0.085 | 0.057 | 0.019 | 0.024 | 0.64
